Measured values as given in patent US6452005B1, “JAK-3 inhibitors for treating allergic disorders” (Parker Hughes Institute, priority 1999, dated 2002).

Assays:
[1] = target: T1, IRK (Homo sapiens, UniProt P06213); experiment: Immune complex kinase assay, IRK from HepG2 cells; assay type: biochemical; details: concentrations as high as 350 μM
T1 construct: IRK was immunoprecipitated from the lysates with an anti-IRb antibody; endogenous in cells; host or cells: HepG2 human hepatoma cells, insulin-stimulated
T1 sequence (P06213 763-1382 limits assumed): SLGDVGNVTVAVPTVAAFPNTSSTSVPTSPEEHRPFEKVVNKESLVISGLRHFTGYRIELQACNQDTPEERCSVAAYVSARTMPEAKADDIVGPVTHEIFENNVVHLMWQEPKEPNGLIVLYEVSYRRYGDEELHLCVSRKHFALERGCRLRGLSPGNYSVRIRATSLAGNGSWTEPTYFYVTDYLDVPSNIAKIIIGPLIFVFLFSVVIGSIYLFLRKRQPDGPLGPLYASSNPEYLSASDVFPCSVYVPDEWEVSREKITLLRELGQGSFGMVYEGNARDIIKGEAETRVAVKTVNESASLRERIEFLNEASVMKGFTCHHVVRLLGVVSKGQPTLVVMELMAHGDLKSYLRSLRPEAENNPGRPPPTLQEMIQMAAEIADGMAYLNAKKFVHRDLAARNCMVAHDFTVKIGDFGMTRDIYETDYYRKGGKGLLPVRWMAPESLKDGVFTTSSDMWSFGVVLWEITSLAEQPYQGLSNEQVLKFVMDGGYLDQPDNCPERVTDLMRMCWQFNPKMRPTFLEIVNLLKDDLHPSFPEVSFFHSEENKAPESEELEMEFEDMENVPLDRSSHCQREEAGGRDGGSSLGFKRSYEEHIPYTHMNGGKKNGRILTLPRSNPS
T1 sequence (P06213 28-758 partner limits assumed): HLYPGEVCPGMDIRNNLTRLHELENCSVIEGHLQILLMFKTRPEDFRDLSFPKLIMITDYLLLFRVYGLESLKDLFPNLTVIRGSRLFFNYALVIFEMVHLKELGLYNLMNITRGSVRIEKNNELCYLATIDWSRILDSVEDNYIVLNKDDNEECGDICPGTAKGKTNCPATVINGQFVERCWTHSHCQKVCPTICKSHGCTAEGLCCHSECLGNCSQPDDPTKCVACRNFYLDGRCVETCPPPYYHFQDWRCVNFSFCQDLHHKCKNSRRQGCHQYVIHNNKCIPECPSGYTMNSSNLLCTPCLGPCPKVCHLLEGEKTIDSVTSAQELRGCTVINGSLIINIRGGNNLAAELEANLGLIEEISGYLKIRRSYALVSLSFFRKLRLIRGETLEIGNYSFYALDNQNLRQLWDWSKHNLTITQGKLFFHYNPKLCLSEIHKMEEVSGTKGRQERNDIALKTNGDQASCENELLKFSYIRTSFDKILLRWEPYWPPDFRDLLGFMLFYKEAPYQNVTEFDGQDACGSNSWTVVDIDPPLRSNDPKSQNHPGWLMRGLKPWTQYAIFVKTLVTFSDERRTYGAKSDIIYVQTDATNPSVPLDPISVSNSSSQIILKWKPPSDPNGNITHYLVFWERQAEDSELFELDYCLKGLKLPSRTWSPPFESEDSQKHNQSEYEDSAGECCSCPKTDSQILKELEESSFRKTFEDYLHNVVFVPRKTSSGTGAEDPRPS
Experimental: For insulin receptor kinase (IRK) assays, HepG2 human hepatoma cells grown to approximately 80% confluency were washed once with serum-free DMEM and starved for 3 hours at 37° in a CO2 incubator. Subsequently, cells were stimulated with insulin (Eli Lilly, cat# CP-410;10 units/ml/10×10^6 cells) for 10 minutes at room temperature. Following this IRK activation step, cells were washed once with serum free medium, lysed in NP-40 buffer and IRK was immunoprecipitated from the lysates with an anti-IRb antibody (Santa Cruz, Cat.# sc-711, polyclonal IgG). Prior to performing the immune complex kinase assays, the beads were equilibrated with the kinase buffer (30 mM Hepes pH 7.4, 30 mM NaCl, 8 mM MgCl2, 4 mM MnCl2).

[2] = target: T2, human JAK3 (Homo sapiens, UniProt P52333); experiment: JAK3 kinase inhibition (Table 1 IC50, immune complex kinase assay); assay type: biochemical; details: Table 1; measured inhibition values for JAK3 kinase
T2 construct: KL-2 EBV-transformed human lymphoblastoid B cells (native JAK3 kinase assays); endogenous in cells; host or cells: KL-2 EBV-transformed human lymphoblastoid B cell line
T2 sequence (P52333 1-1124): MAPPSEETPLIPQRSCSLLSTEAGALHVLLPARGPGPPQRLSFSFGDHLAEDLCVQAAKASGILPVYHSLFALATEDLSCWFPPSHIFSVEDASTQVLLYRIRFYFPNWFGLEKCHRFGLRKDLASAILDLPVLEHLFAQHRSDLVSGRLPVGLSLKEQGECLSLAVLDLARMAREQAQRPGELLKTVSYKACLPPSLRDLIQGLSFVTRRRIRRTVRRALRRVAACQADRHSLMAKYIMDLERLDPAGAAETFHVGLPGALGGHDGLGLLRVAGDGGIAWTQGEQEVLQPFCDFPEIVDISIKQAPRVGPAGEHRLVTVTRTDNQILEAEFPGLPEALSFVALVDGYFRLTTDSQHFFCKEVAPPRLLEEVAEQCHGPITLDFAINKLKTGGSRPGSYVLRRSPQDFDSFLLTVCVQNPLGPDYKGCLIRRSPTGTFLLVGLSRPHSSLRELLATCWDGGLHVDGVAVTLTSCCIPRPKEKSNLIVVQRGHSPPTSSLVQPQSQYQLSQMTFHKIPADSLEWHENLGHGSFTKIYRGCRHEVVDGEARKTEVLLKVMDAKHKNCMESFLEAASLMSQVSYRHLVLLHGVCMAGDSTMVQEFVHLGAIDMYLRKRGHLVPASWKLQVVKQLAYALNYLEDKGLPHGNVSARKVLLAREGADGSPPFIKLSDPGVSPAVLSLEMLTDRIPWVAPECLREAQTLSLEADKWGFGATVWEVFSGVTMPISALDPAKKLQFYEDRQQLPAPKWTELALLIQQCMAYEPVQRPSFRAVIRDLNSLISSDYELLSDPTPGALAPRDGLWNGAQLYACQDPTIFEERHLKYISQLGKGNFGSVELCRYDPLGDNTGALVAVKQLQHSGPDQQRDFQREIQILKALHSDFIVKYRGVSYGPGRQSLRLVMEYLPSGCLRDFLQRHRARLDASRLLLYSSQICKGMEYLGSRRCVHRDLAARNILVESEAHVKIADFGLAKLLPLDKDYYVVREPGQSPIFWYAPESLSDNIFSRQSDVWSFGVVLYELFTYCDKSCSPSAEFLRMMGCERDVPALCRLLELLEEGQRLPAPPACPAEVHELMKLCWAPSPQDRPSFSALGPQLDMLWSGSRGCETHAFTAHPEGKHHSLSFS
Experimental: Immune Complex Kinase Assays.
KL-2 EBV-transformed human lymphoblastoid B cells (native JAK3 kinase assays) or insect ovary cells (recombinant JAK3 kinase assays) were lysed with NP-40 lysis buffer (50 mM Tris, pH 8, 150 mM NaCl, 5 mM EDTA, 1% NP-40, 100 μM sodium orthovanadate, 100 μM sodium molybdate, 8 μg/ml aprotinin, 5 μg/ml leupeptin, and 500 μM PMSF) and centrifuged 10 minutes at 13000×g to remove insoluble material. Samples were immunoprecipitated with antisera prepared against JAK3. The antisera were diluted and immune complexes collected by incubation with 15 μl protein A Sepharose. After 4 washes with NP-40 lysis buffer, the protein A Sepharose beads were washed once in kinase buffer (20 mM MOPS, pH 7.0, 10 mM MgCl2) and resuspended in the same buffer. Reactions were initiated by the addition of 25 μCi γ[^32P] ATP (5000 Ci/mMole) and unlabeled ATP to a final concentration of 5 μM. Reactions were terminated by boiling for 4 min in SDS sample buffer. Samples were run on 9.5% SDS polyacrylamide gels and labeled proteins will be detected by autoradiography. Following electrophoresis, kinase gels were dried onto Whatman 3M filter paper and subjected to phosphoimaging on a Molecular Imager (Bio-Rad, Hercules, Calif.) as well as autoradiography on film. For each drug concentration, a kinase activity index (KA) was determined by comparing the kinase activity in phosphorimager units (PIU) to that of the baseline sample. In some experiments, cold kinase assays were performed, as described (Uckun et. al., 1998, Clin. Cancer Res., 4:901-912).

[3] = target: recombinant JAK2 (Homo sapiens, UniProt O60674); experiment: Immune complex kinase assay, recombinant JAK2; details: FIG. 6C & D
Chain of recombinant JAK2 (O60674 whole entry): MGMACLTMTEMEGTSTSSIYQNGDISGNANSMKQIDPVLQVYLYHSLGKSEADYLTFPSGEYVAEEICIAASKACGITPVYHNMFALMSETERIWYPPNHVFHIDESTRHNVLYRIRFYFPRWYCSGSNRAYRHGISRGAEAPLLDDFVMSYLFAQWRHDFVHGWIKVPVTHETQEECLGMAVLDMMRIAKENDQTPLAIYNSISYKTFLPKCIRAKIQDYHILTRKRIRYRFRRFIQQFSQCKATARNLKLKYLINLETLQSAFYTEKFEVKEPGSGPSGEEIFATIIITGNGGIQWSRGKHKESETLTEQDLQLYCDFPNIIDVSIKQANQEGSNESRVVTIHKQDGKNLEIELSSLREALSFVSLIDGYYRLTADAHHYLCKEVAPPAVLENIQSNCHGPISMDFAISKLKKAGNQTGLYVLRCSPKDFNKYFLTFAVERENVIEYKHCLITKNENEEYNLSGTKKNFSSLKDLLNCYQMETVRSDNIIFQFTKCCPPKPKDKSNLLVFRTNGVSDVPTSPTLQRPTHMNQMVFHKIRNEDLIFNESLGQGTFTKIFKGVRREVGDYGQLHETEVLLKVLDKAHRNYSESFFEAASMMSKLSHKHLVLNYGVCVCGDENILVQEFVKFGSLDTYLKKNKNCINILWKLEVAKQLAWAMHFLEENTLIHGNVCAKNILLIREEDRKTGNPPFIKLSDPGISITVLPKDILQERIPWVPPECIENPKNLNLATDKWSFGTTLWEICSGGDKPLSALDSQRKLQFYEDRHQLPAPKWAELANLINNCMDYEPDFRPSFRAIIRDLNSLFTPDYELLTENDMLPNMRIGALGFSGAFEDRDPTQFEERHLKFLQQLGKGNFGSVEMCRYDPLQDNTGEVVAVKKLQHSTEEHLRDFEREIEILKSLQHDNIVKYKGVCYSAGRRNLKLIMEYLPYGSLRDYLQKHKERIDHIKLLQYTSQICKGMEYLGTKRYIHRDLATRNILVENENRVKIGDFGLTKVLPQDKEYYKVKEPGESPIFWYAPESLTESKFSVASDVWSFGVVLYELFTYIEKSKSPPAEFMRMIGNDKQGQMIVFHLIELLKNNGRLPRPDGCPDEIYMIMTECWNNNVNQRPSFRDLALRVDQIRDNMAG
Experimental: In FIGS. 6A-6D, JAK3, JAK1, and JAK2 were immunoprecipitated from Sf21 insect ovary cells transfected with the appropriate baculovirus expression vectors and treated with WHI-P131, then subjected to in vitro kinase assays as described in the Examples below. The enzymatic activity of JAKs was determined by measuring autophosphorylation in a 10 minute kinase assay, as described in the Examples below. The kinase activity (KA) levels were expressed as percentage of baseline activity (%CON).
Immune Complex Kinase Assays. Sf21 (IPLB-SF21-AE) cells (Vassilev et. al., 1999, J. Biol. Chem,. 274:1646-1656) derived from the ovarian tissue of the fall armyworm Spodotera frugiperda, were obtained from Invitrogen and maintained at 26-28° C. in Grace's insect cell medium supplemented with 10% FBS and 1.0% antibiotic/antimycotic (GIBCO-BRL). Stock cells were maintained in suspension at 0.2-1.6×10^6/ml in 600 ml total culture volume in 1 L Bellco spinner flasks at 60-90 rpm. Cell viability was maintained at 95-100% as determined by trypan blue dye exclusion.
Sf21 cells were infected with a baculovirus expression vector for BTK, SYK, JAK1, JAK2, or JAK3, as previously reported (Mahajan et. al., 1999, J. Biol. Chem., 274:1646-1656). […]

[4] = system: human mast cells; details: IgE-sensitized, anti-IgE challenge, 30 minutes exposure
Experimental: Human Mast Cells: Cells from human fetal livers (16 to 21 weeks of gestational age) were cultured for 5 weeks in the presence of 50 ng/ml rhSCF, 2 ng/ml rhlL-4 (Xia et. al., 1997, J. Immunol., 159:2911-2921). Culture medium was replaced with fresh medium once a week for the first 2 weeks and twice a week thereafter. At the end of the 5 weeks, the fetal liver derived cell cultures contained>70% mast cells, based on tryptase staining (Irani et. al., 1989, J. Histochem. Cytochem, 37:1509-1515).
Fetal liver derived human mast cells were resuspended in tyrode buffer containing calcium and magnesium and challenged with anti-FcεRI antibody 22E7 for 15 minutes. […]
Leukotriene (LT) C4 levels were estimated in cell free supernatants by immunoassay (Malaviya et. al., 1993, J. Biol. Chem., 268:4939-4944). […] Tryptase levels were quantitated in cell free supernatants and pellets of fetal liver derived human mast cells as has been described in detail (Xia et. al., 1997, J. Immunol., 159:2911-2921).
Fetal liver derived human mast cells were cultured in presence of SCF and IL-4 for 5 weeks. […] The FcεRI receptors of fetal liver derived human mast cells were crosslinked with anti-IgE and the resulting mast cell degranulation (i.e., β-tryptase) (Xia et. al., 1997, J. Immunol., 159:2911-2921) and LTC4 release (Malaviya et. al., 1993, J. Biol. Chem., 268:4939-4944) were quantitated.

COc1cc2ncnc(Nc3ccc(O)cc3)c2cc1OC [WHI-P131, 4-(4′-Hydroxylphenyl)-amino-6,7-dimethoxyquinazoline]
effect on enzymatic activity of IRK [1]: did not affect | IC50 [2]: 78 µM | inhibitory activity against recombinant JAK2 [3]: did not exhibit any detectable inhibitory activity | release of LTC4 [4]: inhibited | release of β-tryptase [4]: inhibited
